Key:
TRPC3 = molecular target: T1, TRPC3 (Homo sapiens, UniProt Q13507); assay: FLIPR Ca2+ influx measurement, OAG-activated TRPC3 HEK293 cells; assay type: cell-based; conditions: 30 μM OAG
T1 construct: expressed in transfected cells; host or cells: HEK293 (inducible expression)
T1 sequence (Q13507 1-921): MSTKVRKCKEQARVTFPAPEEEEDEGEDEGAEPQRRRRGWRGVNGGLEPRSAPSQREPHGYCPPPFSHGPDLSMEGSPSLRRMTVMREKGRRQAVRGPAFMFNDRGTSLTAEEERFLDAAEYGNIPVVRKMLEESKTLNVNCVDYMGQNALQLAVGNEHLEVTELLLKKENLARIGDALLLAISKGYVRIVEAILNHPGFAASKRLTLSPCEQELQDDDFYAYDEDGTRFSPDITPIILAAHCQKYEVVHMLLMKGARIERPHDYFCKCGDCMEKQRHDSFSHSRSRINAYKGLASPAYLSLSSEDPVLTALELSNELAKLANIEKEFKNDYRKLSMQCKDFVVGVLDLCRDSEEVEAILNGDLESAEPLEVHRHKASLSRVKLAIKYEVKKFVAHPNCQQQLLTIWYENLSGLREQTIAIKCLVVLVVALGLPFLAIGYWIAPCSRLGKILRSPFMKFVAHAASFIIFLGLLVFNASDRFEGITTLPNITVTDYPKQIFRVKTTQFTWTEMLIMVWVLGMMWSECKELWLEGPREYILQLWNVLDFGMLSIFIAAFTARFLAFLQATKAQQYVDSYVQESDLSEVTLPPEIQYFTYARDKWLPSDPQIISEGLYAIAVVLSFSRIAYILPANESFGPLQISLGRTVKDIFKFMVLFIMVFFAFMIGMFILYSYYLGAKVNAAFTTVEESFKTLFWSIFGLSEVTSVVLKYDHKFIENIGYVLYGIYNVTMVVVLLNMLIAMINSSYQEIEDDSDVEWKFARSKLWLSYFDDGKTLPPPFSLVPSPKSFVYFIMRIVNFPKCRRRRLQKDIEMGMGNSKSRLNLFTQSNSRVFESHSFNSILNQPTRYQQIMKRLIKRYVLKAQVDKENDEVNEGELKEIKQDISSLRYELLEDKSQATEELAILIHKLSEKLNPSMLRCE
From the text: In general, cells are provided which express a TRPC channel. Such cells can be produced using genetic methods known to a person skilled in the art. After having induced the expression of the TRPC channel, cells are usually plated into e.g. microtiter plates and grown. Usually the cells grow at the bottom of multiwell plates and are fixed. Thereafter, the cells are generally washed and loaded with a dye in a suitable loading buffer, preferably with a fluorescent dye such as fluo4am. After having removed the loading buffer, the cells are incubated with the test compound or modulator, in particular with a biochemical or chemical test compound as described above, e.g. in the form of a chemical compound library. Ca^2+ measurements can be carried out using e.g. a Fluorescence Imaging Plate Reader (FLIPR). To stimulate Ca^2+ influx through the TRPC channel a channel activator such as OAG should generally be applied.
TRPC3 and TRPC6 were directly activated by application of oleoyl-2-acetyl-sn-glycerol (OAG), a membrane permeable diacylglycerol analogue.
(A, C) Time-dependent changes of intracellular Ca^2+ concentration ([Ca^2+]i) of fluo-4-loaded induced TRPC3 HEK293 cells (A) and TRPC6 HEK293 cells (C). […] Measurements were performed in 96er well plates using FLIPR (Molecular Devices, Sunnyvale, Calif., USA) (B, D) Determination of norgestimates IC50 value on TRPC3 (B) and TRPC6 (D). […]

V1 receptor = molecular target: T2, V1 receptor (Rattus norvegicus, UniProt P30560); assay: Calcium imaging of fura-2-loaded A7r5 cells stimulated with AVP; assay type: cell-based; conditions: 10 μM, 5 min preincubation, calcium-free solution, 100 nM AVP
T2 construct: endogenous in cells; host or cells: A7r5 (rat aortic smooth muscle)
Description: (§1) The A7r5 cell line (derived from rat thoracic aorta smooth muscle cells) is a model system to investigate endogenous TRPC channels (Jung et al., 2002; Soboloff et al., 2005). The channels were indirectly stimulated by Arg^8-vasopressin (AVP), a vasoconstricting peptide that activates the endogenous vasopressin V1A receptor in these cells (Thibonnier et al., 1991).
Time-dependent changes of [Ca^2+]i; of fura-2-loaded A7r5 cells. Cells were preincubated with or without (control) 10 μM norgestimate (NG) in calcium-free standard extracellular solution (1 mM EGTA) for 5 min before stimulating the V1 receptor by application of 100 nM AVP. Data are represented as means of 33 cells (control) and 36 cells (10 μM norgestimate). Measurements were performed using a standard imaging setup (TILL Photonics, Gräfelfing, Germany).

[1] = test system: native heteromeric TRPC6/7 channels; assay: Whole-cell patch clamp of AVP-stimulated A7r5 cells; assay type: cell-based, rat; conditions: 10 μM
Description: as §1
Perfusion of A7r5 cells with 100 nM AVP stimulated non-selective cationic currents that bore the biophysical hallmarks of TRPC channels (FIG. 5). […] When 10 μM norgestimate were applied to AVP-stimulated A7r5 cells, 86.5±6.0% (n=8) of the current measured at resting membrane potential were blocked and this effect was reversible (FIG. 5).
Effect of 10 μM norgestimate (NG) on whole-cell currents evoked by 100 nM AVP on A7r5 cells in standard extracellular solution (200 μM [Ca^2+]o). Whole cell currents recorded at −60 mV (left panels) and the corresponding I-V relationships are shown (right panels). The curves were obtained during voltage ramps from −100 to +80 mV. L-type voltage-gated Ca^2+ channels were blocked by 5 μM nimodipine (ND) during the whole experiment.

[2] = test system: TRPC3/6/7 subfamily members versus TRPC4/5 subfamily members; assay: Fluorometric measurements, potency compared between TRPC subfamilies; assay type: cell-based; conditions: based on calculated inhibition by 10 μM norgestimate
Description: The 4-fold more potency of norgestimate on TRPC3/6/7 subfamily members than on TRPC4/5 subfamily members was evaluated with fluorometric measurements and based on the calculated inhibition by 10 μM norgestimate.

T2 sequence (P30560 whole entry): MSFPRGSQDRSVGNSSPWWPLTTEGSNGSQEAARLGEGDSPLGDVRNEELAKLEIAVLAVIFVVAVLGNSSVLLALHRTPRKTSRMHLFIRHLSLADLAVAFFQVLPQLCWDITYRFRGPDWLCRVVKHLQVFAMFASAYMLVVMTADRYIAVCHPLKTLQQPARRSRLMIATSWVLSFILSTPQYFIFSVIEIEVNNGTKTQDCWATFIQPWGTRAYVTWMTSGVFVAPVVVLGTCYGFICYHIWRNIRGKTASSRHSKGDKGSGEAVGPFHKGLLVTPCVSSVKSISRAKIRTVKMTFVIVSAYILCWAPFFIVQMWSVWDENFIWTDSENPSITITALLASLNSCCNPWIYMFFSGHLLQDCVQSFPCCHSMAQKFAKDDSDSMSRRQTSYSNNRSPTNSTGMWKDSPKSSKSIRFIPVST

For `C#C[C@]1(OC(C)=O)CC[C@H]2[C@@H]3CCC4=C/C(=N/O)CC[C@@H]4[C@H]3CC[C@@]21CC` [norgestimate, D-17β-acetoxy-B-ethyl-17α ethinyl-gon-4-en-3-one oxime], the IC50 (TRPC3; FLIPR, n=2) was 2800 ± 400 nM, the “TRPC3-mediated Ca2+ influx following application of OAG” value (TRPC3; cells preincubated with 30 μM norgestimate) was “strongly reduced” and the “effect on V1 receptors (AVP-evoked [Ca2+]i)” value (V1 receptor) was “does not generally suppress”. The “reversibility of current block in A7r5 cells” value [1] was “reversible”, the “AVP-stimulated current blocked in A7r5 cells” value ([1]; 100 nM AVP, resting membrane potential (-60 mV), n=8) was 86.5±6.0% and the “fold more potent on TRPC3/6/7 subfamily members than on TRPC4/5 subfamily members” value [2] was “at least 4 fold”.

— patent US8455469B2, “Use of norgestimate as a selective inhibitor of TRPC3, TRPC6 and TRPC7 ion channels” (Sanofi, priority 2007, dated 2013)
